Laboratory results published in US20060035291A1, “Method of detecting cellular immunity and application thereof to drugs” (priority 2001, published 2006).
Read-outs that look alike come from different tables or passages of the source. Where no end group is shown, it is not given here.

What was measured:
[1] = tested on: HLA-A24 restricted antigen peptide-specific T cells (CTL precursors) in PBMCs; assay type: cell-based, human; details: for CTL precursor induction assay, response level per well: quadricate assay
healthy donors [2] = details: in vivo
cancer patients = assay: Skin test for immediate and delayed type hypersensitivity in cancer patients
Experimental: For the skin test, 10 μg of 5 kinds of peptides was subcutaneously administered to each patient. Saline was used as the negative control. 20 minutes and 24 hours after injection, immediate and delayed type hypersensitivity (DHT) reactions were looked for. The skin test reaction was determined as positive if erythema and sclerosis were more than 10 mm in diameter. If the immediate hypersensitivity reaction was negative, a peptide was administered. Each peptide solution (3 mg/ml) was mixed with the same amount of IFA (Montanide ISA-51) and emulsified in a 5-mI plastic syringe, and 3 ml of the emulsion was subcutaneously administered to the lateral femoral region every two weeks. Serum PSA level was measured 4 weeks after vaccination. The time passed was defined as the time from the registration day to the date when the progress of the target disease was recorded. For patients who chose to discontinue the study without any progress of the target disease (e.g., increase in PSA) it was determined that the disease had progressed at the time the study was stopped.
When an immediate hypersensitivity reaction positive in the skin test of one of these peptides, that peptide was vaccinated if the fifth peptide of criteria A, B, or Z was negative in the skin test. […] In Table 14, o signifies vaccine peptides given to each patient.
Vaccine was administered to HLA-A24 positive patients with progressive cancer as following. CypB91 was given to lung cancer patients, ART475 to ovarian cancer patients, and SART3109 to colorectal cancer patients. None of the patients received any steroids or other immunosuppressants from 4 weeks before the beginning of this study to the end of the study. When the skin test was negative, 1 ml of peptide solution (1 mg/ml) was emulsified with the same amount of Freund's incomplete adjuvant (Montanide ISA-51) and injected subcutaneously. In this embodiment, all patients were vaccinated at least three times every two weeks, and up to seventeen times, depending on the patient's wishes.

healthy donors [3] = assay: Allergic skin reaction (type I allergy) skin test in healthy donors
[4] = HLA-A24 positive cervical cancer patient, after more than 5 doses of cancer vaccine
[5] = HRPC Pt. 3, pre-vaccinated PBMCs
[6] = HLA-A24 positive cervical cancer patient, before vaccination, response to HIV-C1R-A24 cells subtracted

**Q.** Which “IFN-γ production 1st well” value [1, 4] does the source give for DYPSLSATDI [ART475] here?
**A.** Its value is 9 pg/well.

**Q.** And the “IFN-γ production 2nd well” value [1, 4]?
**A.** The value was 2 pg/well.

**Q.** And the “IFN-γ production 3rd well” value [1, 4]?
**A.** The value was 60 pg/well.

**Q.** And the “change in reactivity of PBMCs to the vaccinated peptide after vaccination” value ([1]; HLA-A24 positive cervical cancer patient, before vs after 3rd and 6th dose)?
**A.** Its value is “increase in reactivity”.

**Q.** And the “CTL precursor induction assay, response level per well” value [1, 5]?
**A.** The value was “⊚AE”.

**Q.** What about the “CTL precursor induction assay, response level per well” value ([1]; HRPC Pt. 4, pre-vaccinated PBMCs) of the same sequence?
**A.** The value was “⊚B”.

**Q.** And the “rate of skin reaction occurrence (donors)” value (healthy donors [2])?
**A.** Its value is “no such response”.

**Q.** How did the “suppressed cases FR ≦ 0.25” value (healthy donors [2]) turn out when AFLRGAAL [ART4 13-5G] was run?
**A.** Its value is 1/4.

**Q.** For AFLGHAAL, which skin reaction (healthy donors [2]) is on record?
**A.** Its skin reaction is “did not induce skin reaction in any of 4 donors”.

**Q.** For EYRGFTQDF [SART1690], which “IFN-γ production 1st well” value [1, 4] is on record?
**A.** The value was 34 pg/well.

**Q.** And the “IFN-γ production 2nd well” value [1, 4]?
**A.** Its value is 148 pg/well.

**Q.** And the “IFN-γ production 3rd well” value [1, 4]?
**A.** Its value is 329 pg/well.

**Q.** And the “IFN-γ production 1st well” value [1, 6]?
**A.** Its value is <0 pg/well.

**Q.** And the “IFN-γ production 3rd well” value [1, 6]?
**A.** The value was 133 pg/well.

**Q.** And the “CTL precursor induction assay, response level per well” value ([1]; HRPC Pt. 5, pre-vaccinated PBMCs)?
**A.** The value was “C (C, 0.05<p≦0.1 and 50≦net)”.

**Q.** And the “CTL precursor induction assay, response level per well” value ([1]; HRPC Pt. 7, pre-vaccinated PBMCs)?
**A.** The value was “⊚BE”.

**Q.** With KFHRVIGDF [CypB 84-7G] as the sequence, how does the “suppressed cases FR ≦ 0.25” value (healthy donors [2]) read?
**A.** Its value is 1/7.

**Q.** For AYDFLYNYL [SART2161], which “rate of skin reaction occurrence (donors)” value (healthy donors [2]) is on record?
**A.** Its value is “no such response”.

**Q.** Which “number of donors with a significant decrease in skin reaction” value (healthy donors [2]) does the source give for AFGRHAAL here?
**A.** Its value is “one”.

**Q.** How did the “suppressed cases FR ≦ 0.25” value (healthy donors [2]) turn out when GFHRVIKDF [CypB 84-1G] was run?
**A.** Its value is 1/7.

**Q.** With KFHRVIKGF [CypB 84-8G] as the sequence, how does the “suppressed cases FR ≦ 0.25” value (healthy donors [2]) read?
**A.** The value was 0/7.

**Q.** With AFLRGAAL as the sequence, how does the “number of donors with a significant decrease in skin reaction” value (healthy donors [2]) read?
**A.** Its value is “one”.

**Q.** For AFLRHAAG, which “number of donors with a significant decrease in skin reaction” value (healthy donors [2]) is on record?
**A.** The value was “one”.

**Q.** How did the “immediate hypersensitivity reaction in skin test” value (cancer patients; 10 colorectal cancer patients, before vaccination) turn out when EYCLKFTKL [ART1170] was run?
**A.** Its value is “positive in all patients”.

**Q.** For KFHRVIKDG [CypB 84-9G], which “suppressed cases FR ≦ 0.25” value (healthy donors [2]) is on record?
**A.** The value was 2/7.

**Q.** With AGLRHAAL [ART4 13-2G] as the sequence, how does the “skin test, area of flare” value (healthy donors [2]) read?
**A.** Its value is 0 mm × mm.

**Q.** What about the “suppressed cases FR ≦ 0.25” value (healthy donors [2]) of the same sequence?
**A.** The value was 4/4.

**Q.** How did the “suppressed cases FR ≦ 0.25” value (healthy donors [2]) turn out when KFHGVIKDF [CypB 84-4G] was run?
**A.** Its value is 1/7.

**Q.** What does the source list for TFHRVIKDF?
**A.** Allergic skin reaction, area of flare (healthy donors [3]; healthy donor HD1): 540 mm × mm; Allergic skin reaction, area of flare (healthy donors [3]; healthy donor HD2): 1400 mm × mm; Allergic skin reaction, area of flare (healthy donors [3]; healthy donor HD3): 750 mm × mm; Allergic skin reaction, area of flare (healthy donors [3]; healthy donor HD6): 450 mm × mm; Allergic skin reaction, area of flare (healthy donors [3]; healthy donor HD10): 300 mm × mm

**Q.** How did the “Allergic skin reaction, area of flare” value (healthy donors [3]; healthy donor HD1) turn out when HFHRVIPDF was run?
**A.** Its value is 375 mm × mm.

**Q.** What about the “Allergic skin reaction, area of flare” value (healthy donors [3]; healthy donor HD2) of the same sequence?
**A.** Its value is 1225 mm × mm.

**Q.** And the “Allergic skin reaction, area of flare” value (healthy donors [3]; healthy donor HD3)?
**A.** Its value is 750 mm × mm.

**Q.** What about the “Allergic skin reaction, area of flare” value (healthy donors [3]; healthy donor HD6) of the same sequence?
**A.** Its value is 900 mm × mm.

**Q.** And the “Allergic skin reaction, area of flare” value (healthy donors [3]; healthy donor HD10)?
**A.** The value was 156 mm × mm.

**Q.** With AFLRHGAL [ART4 13-6G] as the sequence, how does the “suppressed cases FR ≦ 0.25” value (healthy donors [2]) read?
**A.** Its value is 1/4.

**Q.** For KGHRVIKDF, which “number of donors in whom the skin reaction was significantly decreased (<=0.25 of the rate in redness range)” value (healthy donors [2]) is on record?
**A.** The value was 1.

**Q.** How did the “IFN-γ production 1st well” value [1, 4] turn out when TFDYLRSVL [lck486] was run?
**A.** The value was 2 pg/well.

**Q.** And the “IFN-γ production 2nd well” value [1, 4]?
**A.** The value was 24 pg/well.

**Q.** And the “IFN-γ production 3rd well” value [1, 4]?
**A.** The value was <0 pg/well.

**Q.** And the “IFN-γ production 1st well” value [1, 6]?
**A.** The value was <0 pg/well.

**Q.** What about the “IFN-γ production 2nd well” value [1, 6] of the same sequence?
**A.** Its value is <0 pg/well.

**Q.** What about the “IFN-γ production 3rd well” value [1, 6] of the same sequence?
**A.** Its value is 31 pg/well.

**Q.** What about the “CTL precursor induction assay, response level per well” value ([1]; HRPC Pt. 1, pre-vaccinated PBMCs) of the same sequence?
**A.** The value was “E (E: 0.1<p≦0.2 and 100≦net)”.

**Q.** And the “CTL precursor induction assay, response level per well” value ([1]; HRPC Pt. 2, pre-vaccinated PBMCs)?
**A.** Its value is “^b(⊚B)”.

**Q.** What about the “CTL precursor induction assay, response level per well” value [1, 5] of the same sequence?
**A.** The value was “(D)”.

**Q.** What about the “CTL precursor induction assay, response level per well” value ([1]; HRPC Pt. 8, pre-vaccinated PBMCs) of the same sequence?
**A.** Its value is “⊚A”.

**Q.** And the “peptide-specific DTH reaction” value (cancer patients; colorectal cancer patient 4, after the 3rd vaccination)?
**A.** Its value is “exhibited DTH reaction”.

**Q.** With KFHGVIKDF as the sequence, how does the “number of donors in whom the skin reaction was significantly decreased (<=0.25 of the rate in redness range)” value (healthy donors [2]) read?
**A.** The value was 1.

**Q.** Which “number of donors in whom the skin reaction was significantly decreased (<=0.25 of the rate in redness range)” value (healthy donors [2]) does the source give for KFHRVGKDF here?
**A.** The value was 3.

**Q.** KFHRVIKDG was tested. Which “number of donors in whom the skin reaction was significantly decreased (<=0.25 of the rate in redness range)” value (healthy donors [2]) did it give?
**A.** Its value is 2.

**Q.** Which “suppressed cases FR ≦ 0.25” value (healthy donors [2]) does the source give for KFGRVIKDF [CypB 84-3G] here?
**A.** Its value is 2/7.
